Assay results as given in US20220362365A1, “IMPROVED COMPOSITIONS AND METHODS FOR SHARED NEO-EPITOPE VACCINES” (Epivax Therapeutics Inc., priority 2019, published 2022).

What was measured:
CT26 tumor cells = assay: CT26 tumor growth / survival after vaccination (Example 1); type: in vivo; details: CT26 tumor-bearing Balb/c mice
[1] = system: CT26 murine colon tumor cells; assay: Anti-tumor activity with or without poly-ICLC, CT26 murine tumor model (Example 13); type: in vivo; details: CT26 tumor-bearing BALB/c mice, n=10, day 25 post-tumor implantation, relative to PBS or poly-ICLC alone
Experimental: The goal of this experiment was to determine the requirement for the inclusion of the adjuvant poly-ICLC in a peptide vaccine containing ANCER™ selected neoantigens. For this experiment, female BALB/c mice were implanted subcutaneously with 3×10^5 CT26 murine colon tumor cells. Tumor growth was monitored by caliper measurement and mice were sacrificed 45 days after tumor implantation or when tumor volumes reached 2000 mm^3, whichever came first.
Four vaccine groups were tested (n=10 mice/group): • Group 1=PBS only • Group 2=PBS with 50 μg poly-ICLC • Group 3=20 ANCER™ selected (uncapped) peptides with 50 μg poly-ICLC • Group 4=20 ANCER™ selected (uncapped) peptides only
Peptide vaccines were comprised of 20 different ANCER™ selected peptides at a concentration of 5 μg/peptide for a total dose of 100 μg peptide per immunization. Mice were immunized subcutaneously in the opposite flank from tumor implantation twice per week for three weeks, starting at day 4 post-tumor implantation.

poly-ICLC
tumor burden compared to Group 1 (mice immunized with PBS) (CT26 tumor cells; 50 μg sc days 5, 8, 12, 15, 19, 22, 26): no reduction in tumor burden | mice surviving past day 28 (CT26 tumor cells; N=10): Less than 50% | mice surviving the 45 days of the experiment (in words) (CT26 tumor cells; N=10): None | mice reaching a tumor volume of at least 2,000 mm^3 (endpoint) by day 28 (CT26 tumor cells; N=10, day 28, PBS group 70%): 60% | control of tumor growth [1]: no difference in tumor growth kinetics
